# Laboratory results as given in ChEMBL document CHEMBL5705884, “Breaching the DNA damage checkpoint via PF-00477736, a novel small-molecule inhibitor of checkpoint kinase 1” (Mol Cancer Ther, 2008).
# Calls of active or inactive are those of the source. No cut-off for these calls is given here.
# Columns and labels:
# [1] = target: Tyrosine-protein kinase Yes (Homo sapiens, UniProt P07947); test: Inhibition of Yes (unknown origin)
# [2] = target: Macrophage colony-stimulating factor 1 receptor (Homo sapiens, UniProt P07333); test: Inhibition of Fms (unknown origin)
# Sequence of Macrophage colony-stimulating factor 1 receptor (P07333 whole entry): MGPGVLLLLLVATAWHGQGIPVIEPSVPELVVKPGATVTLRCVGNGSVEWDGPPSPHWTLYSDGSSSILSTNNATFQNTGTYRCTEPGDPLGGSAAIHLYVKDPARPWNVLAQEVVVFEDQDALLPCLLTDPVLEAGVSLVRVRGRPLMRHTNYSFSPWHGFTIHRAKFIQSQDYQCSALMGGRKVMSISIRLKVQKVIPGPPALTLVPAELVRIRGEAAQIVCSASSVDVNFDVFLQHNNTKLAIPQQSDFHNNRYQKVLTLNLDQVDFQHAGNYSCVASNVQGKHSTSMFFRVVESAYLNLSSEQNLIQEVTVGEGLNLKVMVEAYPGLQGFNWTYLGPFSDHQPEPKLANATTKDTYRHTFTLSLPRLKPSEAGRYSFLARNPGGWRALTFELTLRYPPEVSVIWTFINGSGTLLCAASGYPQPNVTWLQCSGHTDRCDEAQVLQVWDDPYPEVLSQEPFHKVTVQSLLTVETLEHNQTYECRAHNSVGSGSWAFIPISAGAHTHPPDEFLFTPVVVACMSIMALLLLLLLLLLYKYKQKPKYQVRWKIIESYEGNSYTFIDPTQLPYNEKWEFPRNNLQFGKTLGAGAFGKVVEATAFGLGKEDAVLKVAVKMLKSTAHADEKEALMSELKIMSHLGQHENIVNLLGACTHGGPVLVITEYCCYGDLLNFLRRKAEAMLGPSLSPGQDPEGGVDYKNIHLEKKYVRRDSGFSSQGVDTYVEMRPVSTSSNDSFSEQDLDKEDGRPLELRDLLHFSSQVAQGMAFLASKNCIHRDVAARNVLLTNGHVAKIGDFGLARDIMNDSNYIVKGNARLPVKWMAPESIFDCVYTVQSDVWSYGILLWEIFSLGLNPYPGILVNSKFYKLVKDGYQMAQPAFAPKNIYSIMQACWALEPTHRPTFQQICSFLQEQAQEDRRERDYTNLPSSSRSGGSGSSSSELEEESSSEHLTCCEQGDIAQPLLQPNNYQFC
# [3] = Cmax in nu/nu mouse at 4 mg/kg, ip by LCMS analysis; format: ADME, organism-based; settings: in vivo
# [4] = Cmax in nu/nu mouse at 40 mg/kg, ip by LCMS analysis; format: ADME, organism-based; settings: in vivo
# [5] = Volume of distribution at steady state in Sprague-Dawley rat at 4 mg/kg, iv administered as bolus dose by LCMS analysis; format: ADME, organism-based; settings: in vivo, read-out: Vdss
# HeLa = test: Inhibition of camptothecin induced DNA damage in human HeLa cells assessed as increase in mitotic index by measuring histone H3 phosphorylation at S10 residue at 0.001 to 1 uM measured after 16 hrs presence of nocodazole by dot blot assay; format: functional, cell-based
# HT-29 [6] = test: Inhibition of cell cycle arrest in human HT-29 cells assessed as inhibition of gemcitabine induced S-phase arrest pretreated with gemcitabine followed by compound treatment and measured after 10 to 48 hrs by flow cytometry analysis; format: functional, cell-based; settings: time 10-48 hrs
# HT-29 [7] = test: Induction of apoptosis in gemcitabine induced human HT-29 cells assessed as apoptotic cell death measured after 24 hrs by PI staining based flow cytometry analysis (reference value: 0.7%); format: functional
# HT-29 [8] = test: Potentiation of camptothecin induced cytotoxicity in human HT-29 cells assessed as cell survival at 540 nM measured after 4 to 48 hrs by coulter counter method relative to camptothecin alone; format: functional; settings: time 4-48 hrs, read-out: Activity
# HT-29 [9] = test: Antiproliferative activity against human HT-29 cells deficit of p53 expression assessed as inhibition of cell growth measured after 96 hrs by MTT assay; format: functional, cell-based; settings: HT-29, 96 h
# PC-3 = test: Antiproliferative activity against human PC-3 cells deficit of p53 expression assessed as inhibition of cell growth measured after 96 hrs by MTT assay; format: functional, cell-based; settings: PC-3, 96 h
# HT-29 [10] = test: Potentiation factor, ratio of IC50 for human HT-29 cells to IC50 for human HT-29 cells in presence of doxorubicin; format: functional
# K562 = test: Potentiation factor, ratio of IC50 for human K562 cells to IC50 for human K562 cells in presence of SN-38; format: functional
# HT-29 [11] = test: Upregulation of cyclin B level in gemcitabine induced human HT-29 cells at 360 nM measured after 10 hrs by immunoblot analysis; format: functional, cell-based
# HT-29 [12] = test: Inhibition of gemcitabine induced cell cycle arrest in human HT-29 cells assessed as disappearance of cyclin B level at 360 nM measured after 24 hrs by immunoblot analysis relative to control; format: functional
# COLO 205 [13] = test: Antitumor activity against human COLO 205 cells xenografted in athymic nude mouse model assessed as tumor growth inhibition at 24 mg/kg, ip administered twice daily in presence of gemcitabine (Gemcitabine alone= 58%); format: functional; settings: read-out: TGI
# COLO 205 [14] = test: Antitumor activity against human COLO 205 cells xenografted in athymic nude mouse model assessed as tumor growth inhibition at 4 mg/kg, ip administered twice daily in presence of gemcitabine (Gemcitabine alone= 58%); format: functional; settings: read-out: TGI
# COLO 205 [15] = test: Antitumor activity against human COLO 205 cells xenografted in athymic nude mouse model assessed as tumor growth inhibition at 30 mg/kg, ip administered twice daily in presence of gemcitabine (Gemcitabine alone = 40%); format: functional; settings: read-out: TGI
# COLO 205 [16] = test: Antitumor activity against human COLO 205 cells xenografted in athymic nude mouse model assessed as potentiated tumor growth inhibition at 40 mg/kg, ip administered twice daily in presence of gemcitabine relative to control; format: functional; settings: read-out: TGI
# COLO 205 [17] = test: Antitumor activity against human COLO 205 cells xenografted in athymic nude mouse model assessed as potentiated tumor growth inhibition at 7.5 mg/kg, ip administered once daily in presence of gemcitabine relative to control; format: functional; settings: read-out: TGI
# COLO 205 [18] = test: Antitumor activity against human COLO 205 cells xenografted in athymic nude mouse model assessed as potentiated tumor growth inhibition at 15 mg/kg, ip administered once daily in presence of gemcitabine relative to control; format: functional; settings: read-out: TGI
# COLO 205 [19] = test: Antitumor activity against human COLO 205 cells xenografted in athymic nude mouse model assessed as potentiated tumor growth inhibition at 15 mg/kg, ip administered twice daily in presence of gemcitabine relative to control; format: functional; settings: read-out: TGI
# COLO 205 [20] = test: Antitumor activity against human COLO 205 cells xenografted in athymic nude mouse model assessed as tumor growth delay by measuring test to control tumor ratio at 4 mg/kg, ip administered once daily in presence of gemcitabine (Gemcitabine alone = 8 %); format: functional
# COLO 205 [21] = test: Antitumor activity against human COLO 205 cells xenografted in athymic nude mouse model assessed as tumor growth delay by measuring test to control tumor ratio at 24 mg/kg, ip administered twice daily in presence of gemcitabine (Gemcitabine alone= 8%); format: functional
# COLO 205 [22] = test: Antitumor activity against human COLO 205 cells xenografted in athymic nude mouse model assessed as tumor growth delay by measuring test to control tumor ratio at 15 mg/kg, ip administered once daily in presence of gemcitabine (Gemcitabine alone = 3%); format: functional
# COLO 205 [23] = test: Antitumor activity against human COLO 205 cells xenografted in athymic nude mouse model assessed as tumor growth delay by measuring test to control tumor ratio at 15 mg/kg, ip administered twice daily in presence of gemcitabine (Gemcitabine alone = 3%); format: functional
# COLO 205 [24] = test: Antitumor activity against human COLO 205 cells xenografted in athymic nude mouse model assessed as gross log cell kill at 12 mg/kg, ip administered once daily in presence of gemcitabine (Gemcitabine alone = 0.5%); format: functional
# COLO 205 [25] = test: Antitumor activity against human COLO 205 cells xenografted in athymic nude mouse model assessed as gross log cell kill at 7.5 mg/kg, ip administered once daily in presence of gemcitabine (Gemcitabine alone = 0.27%); format: functional
# COLO 205 [26] = test: Antitumor activity against human COLO 205 cells xenografted in athymic nude mouse model assessed as gross log cell kill at 30 mg/kg, ip administered once daily in presence of gemcitabine (Gemcitabine alone = 0.27%); format: functional
# COLO 205 [27] = test: Antitumor activity against human COLO 205 cells xenografted in athymic nude mouse model assessed as gross log cell kill at 7.5 mg/kg, ip administered twice daily in presence of gemcitabine (Gemcitabine alone = 0.27%); format: functional
# COLO 205 [28] = test: Antitumor activity against human COLO 205 cells xenografted in athymic nude mouse model assessed as gross log cell kill at 15 mg/kg, ip administered twice daily in presence of gemcitabine (Gemcitabine alone = 0.27%); format: functional
# COLO 205 [29] = test: Antitumor activity against human COLO 205 cells xenografted in athymic nude mouse model assessed as gross log cell kill at 30 mg/kg, ip administered twice daily in presence of gemcitabine (Gemcitabine alone = 0.27%); format: functional
# COLO 205 [30] = test: In vivo inhibition of Chk1 in athymic nude mouse xenografted with gemcitabine treated human COLO 205 cells assessed as increase in caspase-3 level by immunohistochemical analysis; format: functional, cell-based; settings: dose 15-30 mg/kg
# COLO 205 [31] = test: In vivo inhibition of Chk1 in athymic nude mouse xenografted with gemcitabine treated human COLO 205 cells assessed as increase in phospho histone H2AX level at 7.5 to 15 mg/kg by immunohistochemical analysis; format: functional, organism-based; settings: dose 7.5-15 mg/kg
# Sequence of Tyrosine-protein kinase Yes (P07947 whole entry): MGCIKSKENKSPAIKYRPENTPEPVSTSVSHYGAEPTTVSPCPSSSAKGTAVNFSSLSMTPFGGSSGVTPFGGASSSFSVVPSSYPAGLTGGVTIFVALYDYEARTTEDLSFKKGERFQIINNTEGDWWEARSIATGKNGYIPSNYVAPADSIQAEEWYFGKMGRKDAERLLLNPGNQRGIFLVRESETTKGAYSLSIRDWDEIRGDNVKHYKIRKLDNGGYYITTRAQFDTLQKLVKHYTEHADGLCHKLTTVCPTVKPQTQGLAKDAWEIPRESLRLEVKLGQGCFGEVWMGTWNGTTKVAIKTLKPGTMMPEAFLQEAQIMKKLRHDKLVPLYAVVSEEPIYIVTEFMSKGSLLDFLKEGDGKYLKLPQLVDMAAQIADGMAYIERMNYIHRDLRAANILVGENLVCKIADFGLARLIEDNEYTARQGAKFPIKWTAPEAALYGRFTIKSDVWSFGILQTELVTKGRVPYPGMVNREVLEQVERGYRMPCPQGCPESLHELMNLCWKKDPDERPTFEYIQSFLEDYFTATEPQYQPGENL
structure (smiles),measurement,setting,value
Cn1cc(-c2[nH]c3cc(NC(=O)[C@H](N)C4CCCCC4)cc4c3c2C=NNC4=O)cn1,IC50,[1],0.029 µM
same,IC50,[2],0.02 µM
same,Cmax,[3],270 ng/mL
same,Cmax,[4],6780 ng/mL
same,Vd,[5],0.7 L/kg
same,EC50,HeLa,0.038 µM
same,inhibition,HT-29 [6],Active
same,Activity,HT-29 [7],5.2%
same,viability at 0.54 µM,HT-29 [8],78%
same,IC50,HT-29 [9],1.8 µM
same,IC50,PC-3,1.6 µM
same,PF50,HT-29 [10],2.2
same,PF50,K562,1.9
same,Activity,HT-29 [11],Active
same,inhibition at 0.36 µM,HT-29 [12],100%
same,inhibition in vivo at 24 mg/kg,COLO 205 [13],81%
same,inhibition in vivo at 4 mg/kg,COLO 205 [14],63%
same,inhibition in vivo at 30 mg/kg,COLO 205 [15],78%
same,inhibition in vivo at 40 mg/kg,COLO 205 [16],75%
same,inhibition in vivo at 7.5 mg/kg,COLO 205 [17],23%
same,inhibition in vivo at 15 mg/kg,COLO 205 [18],45%
same,inhibition in vivo at 15 mg/kg,COLO 205 [19],44%
same,T/C,COLO 205 [20],8
same,T/C,COLO 205 [21],12
same,T/C,COLO 205 [22],7.75
same,T/C,COLO 205 [23],11.25
same,LCK,COLO 205 [24],0.53
same,LCK,COLO 205 [25],0.52
same,LCK,COLO 205 [26],0.66
same,LCK,COLO 205 [27],1.21
same,LCK,COLO 205 [28],1.03
same,LCK,COLO 205 [29],0.89
same,inhibition,COLO 205 [30],Dose-Dependent Effect
same,inhibition,COLO 205 [31],Active
